Where only a bound is given, the exact number is not on record here.

Assay [1] deals with HMPV clinical isolate A2 strain TN 94-49. Nature of the assay: HMPV antiviral assay, Method 2 (LLC-MK2 cells with CP-100-356, ATP-Lite). The format is cell-based. As to conditions: human metapneumovirus; hMPV A2 TN/94-49, LLC-MK2 cells with CP-100-356, Method 2. An outline of the steps: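 EC50 comes from a four-parameter fit of percent cell viability (ATP-Lite, normalized to virus-only and cell-only wells) after 7 days at 37 °C. Infection used HMPV A2 TN 94-49 at MOI 0.16 in LLC-MK2 cells, with 2 μM P-gp inhibitor CP-100-356 and 2 μg/mL TPCK-trypsin final; dose range 200 nM top, 2.5-fold, 10 points, duplicate.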

Assay [2] shares this test system. Nature of the assay: HMPV antiviral assay, Method 1 (LLC-MK2 cells, ATP-Lite). Type of assay: cell-based. The settings on record: human metapneumovirus, hMPV A2 TN/94-49, LLC-MK2 cells. Put shortly: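 EC50 derived by four-parameter logistic fit of percent cell health, measured as ATP-Lite luminescence after 7 days at 37° C, 5% CO2. Compounds tested as 10-point 2.5-fold dilutions starting at 2 μM against TN 94-49 virus (MOI 0.005) in LLC-MK2 cells seeded at 5,000/well, infection medium containing 2 μg/mL TPCK-trypsin, serum-free.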

As to `COc1cc(C(=O)NC[C@@](O)(c2ccccc2)c2cc3c(c(-c4cc(Cl)ccc4F)n2)OC[C@]3(C)C(N)=O)cc2cn(C(F)F)nc12` [Example 145], the values for the EC50 in assay [1] and in assay [2] were below 0.2 µM and below 0.5 µM, respectively.

Turning to `COc1cc(C(=O)NC[C@@](O)(c2ccccc2)c2cc3c(c(-c4cc(Cl)c(F)cc4F)n2)OC[C@]3(C)C(N)=O)cc2cc(C)nnc12` [Example 89], the EC50 is below 0.2 µM in assay [1] and below 0.5 µM in assay [2].

With `COc1cc(C(=O)NC[C@@](O)(c2ccccc2)c2cc3c(c(-c4cc(Cl)c(F)cc4F)n2)OC[C@]3(C)C(N)=O)cc2cc(C3CC3)nnc12` [Example 90], the figures for the EC50 in assay [1] and in assay [2] were below 0.2 µM and below 0.5 µM, respectively.

As to `COc1cc(C(=O)NC[C@@](O)(c2ccccc2)c2cc3c(c(-c4cc(Cl)c(F)cc4F)n2)OC[C@]3(C)C(N)=O)cc2cn(C3(F)CC3)nc12` [Example 158], the EC50 in assay [1] was below 0.2 µM; in assay [2], below 0.5 µM.

Turning to `COc1cc(C(=O)NC[C@@](O)(c2ccccc2)c2cc3c(c(-c4ccc(F)c(Cl)c4Cl)n2)OC[C@]3(C)C(N)=O)cc2oc(C)nc12` [Example 277], the concentration giving a half-maximal response (EC50) in assay [1] is below 0.2 µM; in assay [2], below 0.5 µM.

Take `COc1cc(C(=O)NC[C@](O)(c2cc3c(c(-c4cc(Cl)c(F)cc4F)n2)OC[C@]3(C)C(N)=O)C2CC2)cn2cc(C3CC3)nc12` [Example 77]: the EC50 in assay [1] was below 0.2 µM; in assay [2] it was below 0.5 µM.

For the molecule `COc1cc(C(=O)NC[C@@](O)(c2cccc(F)c2)c2cc3c(c(-c4ccc(F)c(Cl)c4Cl)n2)OC[C@]3(C)C(N)=O)cc2cn(C3(F)CC3)nc12` [Example 269], the 50% effective concentration (EC50) in assay [1] was below 0.2 µM; in assay [2], below 0.5 µM.

In the case of `C[C@]1(C(N)=O)COc2c1cc([C@@](O)(CNC(=O)c1cc(OC3CC3)c3nn(C4CC4)cc3c1)C1CC1)nc2-c1ccc(F)c(Cl)c1Cl` [Example 23], the EC50 in assay [1] is below 0.2 µM; in assay [2] it was below 0.5 µM.

As to `COc1cc(C(=O)NC[C@@](O)(c2ccccc2)c2cc3c(c(-c4cc(Cl)c(F)cc4F)n2)OC[C@]3(C)C(N)=O)cc2cc(C(F)F)nnc12` [Example 186], the results for the EC50 in assay [1] and in assay [2] were below 0.2 µM and above 0.5 µM, respectively.

Turning to `COc1cc(C(=O)NC[C@@](O)(c2ccc(F)cc2)c2cc3c(c(-c4ccc5c(c4Cl)OC(F)(F)O5)n2)OC[C@]3(C)C(N)=O)cc2cn(C(F)F)nc12` [Example 264], the EC50 in assay [1] is below 0.2 µM; in assay [2], below 0.5 µM.

For the molecule `COc1cc(C(=O)NC[C@](O)(c2cc3c(c(-c4ccc(F)c(Cl)c4Cl)n2)OC[C@]3(C)C(N)=O)C(F)(F)F)cc2cn(C(F)F)nc12` [Example 66], the concentration for a half-maximal effect (EC50) in assay [1] was below 0.2 µM; in assay [2], below 0.5 µM.

Regarding `COc1ccc([C@](O)(CNC(=O)c2cc(OC)c3nn(C4CC4)cc3c2)c2cc3c(c(-c4cc(Cl)c(F)cc4F)n2)OC[C@]3(C)C(N)=O)cc1` [Example 165], the concentration for a half-maximal effect (EC50) in assay [1] is below 0.2 µM; in assay [2], below 0.5 µM.

As for `COc1cc(C(=O)NC[C@@](O)(c2ccccc2)c2cc3c(c(-c4ccc(F)c(Cl)c4Cl)n2)OC[C@]3(C)C(N)=O)cc2oc(C3CC3)nc12` [Example 278], the EC50 in assay [1] was below 0.2 µM; in assay [2], below 0.5 µM.

`COc1cc(C(=O)NC[C@@](O)(c2ccc(F)cc2)c2cc3c(c(-c4cc(Cl)c(F)cc4F)n2)OC[C@]3(C)C(N)=O)cc2cn(C3CC3)nc12` [Example 12]: the EC50 in assay [1] was below 0.2 µM; in assay [2] it was below 0.5 µM.

Turning to `COc1cc(C(=O)NC[C@@](O)(c2ccccc2)c2cc3c(c(-c4cccc(Cl)c4Cl)n2)OC[C@]3(C)C(N)=O)cc2cn(C3CC3)nc12` [Example 260], the EC50 in assay [1] was below 0.2 µM; in assay [2] it was below 0.5 µM.

As for `[2H]C([2H])([2H])c1nc2ccc(C(=O)NC[C@@](O)(c3cccc(F)c3)c3cc4c(c(-c5ccc6c(c5Cl)OC(F)(F)O6)n3)OC[C@]4(C)C(N)=O)cc2o1` [Example 282], the EC50 is below 0.2 µM in assay [1] and below 0.5 µM in assay [2].

On to `C[C@]1(C(N)=O)COc2c1cc([C@@](O)(CNC(=O)c1cc(OC3CC3)n3nc(C4CC4)cc3c1)C1CC1)nc2-c1cc(Cl)c(F)cc1F` [Example 4], for which the EC50 in assay [1] is below 0.2 µM; in assay [2] it was below 0.5 µM.

`COc1cc(C(=O)NC[C@](O)(c2cc3c(c(-c4ccc(F)c(C)c4Cl)n2)OC[C@]3(C)C(N)=O)C2CC2)cc2cn(C3CC3)nc12` [Example 69]: the figures for the EC50 in assay [1] and in assay [2] were below 0.2 µM and below 0.5 µM, respectively.

As to `COc1cc(C(=O)NC[C@@](O)(c2ccccc2)c2cc3c(c(-c4cc(Cl)ccc4F)n2)OC[C@]3(C)C(N)=O)cc2cn(C3CC3)nc12` [Example 144], the EC50 was below 0.2 µM in assay [1] and below 0.5 µM in assay [2].

For the molecule `COc1cc(C(=O)NC[C@](O)(c2cc3c(c(-c4cc(Cl)c(F)cc4F)n2)OC[C@]3(C)C(N)=O)c2cccs2)cc2cn(C3CC3)nc12` [Example 474], the EC50 is below 0.2 µM in assay [1] and below 0.5 µM in assay [2].

Turning to `COc1cc(C(=O)NC[C@](O)(c2cc3c(c(-c4cc(F)c(F)cc4F)n2)OC[C@]3(C)C(N)=O)C2CC2)cc2cc(C)c(F)nc12` [Example 21], the EC50 in assay [1] was below 0.2 µM; in assay [2] it was below 0.5 µM.

For the molecule `COc1cccc([C@](O)(CNC(=O)c2cc(OC)c3nn(C4CC4)cc3c2)c2cc3c(c(-c4cc(Cl)c(F)cc4F)n2)OC[C@]3(C)C(N)=O)c1` [Example 160], the EC50 was below 0.2 µM in assay [1] and below 0.5 µM in assay [2].

`COc1cc(C(=O)NCC(O)(c2cc3c(c(-c4cc(Cl)c(F)cc4F)n2)OC[C@]3(C)C(N)=O)c2ccc(C)s2)cc2cn(C3CC3)nc12` (stereo partly shown) [Example 470]: the results for the EC50 in assay [1] and in assay [2] were below 0.2 µM and below 0.5 µM, respectively.

For the molecule `COc1cc(C(=O)NC[C@@](O)(c2cccnc2)c2cc3c(c(-c4cc(Cl)c(F)cc4F)n2)OC[C@]3(C)C(N)=O)cc2cn(C3CC3)nc12` [Example 131], the EC50 in assay [1] is below 0.2 µM; in assay [2], below 0.5 µM.

With `COc1cc(C(=O)NC[C@@](O)(c2ccc(F)cc2)c2cc3c(c(-c4ccc(F)c(Cl)c4Cl)n2)OC[C@]3(C)C(N)=O)cc2cn(C3CC3)nc12` [Example 41], the EC50 in assay [1] is below 0.2 µM; in assay [2], below 0.5 µM.

Turning to `C[C@]1(C(N)=O)COc2c1cc([C@@](O)(CNC(=O)c1cc(OC3CC3)c3nn(C(F)F)cc3c1)C1CC(F)(F)C1)nc2-c1cc(F)c(F)cc1F` [Example 34], the EC50 in assay [1] was below 0.2 µM; in assay [2], below 0.5 µM.

As to `COc1cc(C(=O)NC[C@](O)(c2cc3c(c(-c4cc(F)c(F)cc4F)n2)OC[C@]3(C)C(N)=O)C2CC2)cc2cc(C(F)(F)F)cnc12` [Example 46], in assay [2], the half-maximal effective concentration (EC50) was above 0.5 µM.

In assay [2], `COc1cc(C(=O)NC[C@@](O)(c2ccccc2)c2cc3c(c(-c4ccc(F)c(Cl)c4Cl)n2)OC[C@]3(C)C(N)=O)cc2cn(C3CC3)nc12` [Example 257] came in with a concentration giving a half-maximal response (EC50) below 0.5 µM.

Regarding `C[C@]1(C(N)=O)COc2c1cc([C@@](O)(CNC(=O)c1cc(OC(F)F)c3nn(C4CC4)cc3c1)C1CC1)nc2-c1ccc(F)c(F)c1Cl` [Example 39], the EC50 in assay [2] was below 0.5 µM.

With `COc1cc(C(=O)NC[C@@](O)(c2ccccc2)c2cc3c(c(-c4ccc5c(c4Cl)OC(F)(F)O5)n2)OC[C@]3(C)C(N)=O)cc2cc(C3CC3)nn12` [Example 254], the EC50 in assay [2] was below 0.5 µM.

Molecule `C[C@]1(C(N)=O)COc2c1cc([C@@](O)(CNC(=O)c1cc(OC(F)F)c3nn(C4CC4)cc3c1)C1CC1)nc2-c1cc(F)c(F)cc1F` [Example 6] yielded an EC50 in assay [2] below 0.5 µM.

Consider `[2H]c1nc2c(OC(F)F)cc(C(=O)NC[C@@](O)(c3ccccc3)c3cc4c(c(-c5cc(Cl)c(F)cc5F)n3)OC[C@]4(C)C(N)=O)cc2cc1C([2H])([2H])[2H]` [Example 217], for which the EC50 in assay [2] is below 0.5 µM.

`COc1cc(C(=O)NC[C@](O)(c2cc3c(c(-c4ccc(Cl)c(Cl)c4Cl)n2)OC[C@]3(C)C(N)=O)C2CC2)cc2cn(C3CC3)nc12` [Example 60] showed an EC50 in assay [2] below 0.5 µM.

For `[2H]C([2H])([2H])c1nc2c(OC)cc(C(=O)NC[C@@](O)(c3ccccc3)c3cc4c(c(-c5ccc(F)c(Cl)c5Cl)n3)OC[C@]4(C)C(N)=O)cc2s1` [Example 273], the EC50 in assay [2] is below 0.5 µM.

As to `COc1cc(C(=O)NC[C@](O)(c2cc3c(c(-c4cc(Cl)c(F)cc4F)n2)OC[C@]3(C)C(N)=O)c2cnn[nH]2)cc2cn(C3CC3)nc12` [Example 180], the EC50 in assay [2] was above 0.5 µM.

On to `COc1cc(C(=O)NC[C@](O)(c2cc3c(c(-c4ccc(C(F)(F)F)c(C)c4)n2)OC[C@]3(C)C(N)=O)C2CC2)cc2cn(C3CC3)nc12` [Example 55], for which the EC50 in assay [2] was above 0.5 µM.

On to `COc1cc(C(=O)NC[C@@](O)(c2cc3c(c(-c4cc(Cl)c(F)cc4F)n2)OC[C@]3(C)C(N)=O)c2cc(C)cs2)cc2cn(C3CC3)nc12` [Example 466], for which the half-maximal effective concentration (EC50) in assay [2] was above 0.5 µM.

For `Cc1nc2ccc(C(=O)NC[C@@](O)(c3ccccc3)c3cc4c(c(-c5ccc(F)c(Cl)c5Cl)n3)OC[C@]4(C)C(N)=O)cc2o1` [Example 267], in assay [2], the EC50 was below 0.5 µM.

For the molecule `[2H]C([2H])([2H])c1nc2c(OC(F)F)cc(C(=O)NC[C@](O)(c3cc4c(c(-c5cc(Cl)c(F)cc5F)n3)OC[C@]4(C)C(N)=O)C3CC3)cc2cc1Br` [Example 11], the EC50 in assay [2] was above 0.5 µM.

For the molecule `[2H]C([2H])([2H])c1nc2ccc(C(=O)NC[C@@](O)(c3ccccc3)c3cc4c(c(-c5cc(Cl)c(F)cc5F)n3)OC[C@]4(C)C(N)=O)cc2o1` [Example 87], in assay [2], the EC50 was below 0.5 µM.

In the case of `COc1cc(C(=O)NC[C@](O)(c2cc3c(c(-c4ccc(C)c(C(F)(F)F)c4)n2)OC[C@]3(C)C(N)=O)C2CC2)cc2cn(C3CC3)nc12` [Example 56], the EC50 in assay [2] is above 0.5 µM.

The values above are taken from patent publication US20240368174A1, “Antiviral Heterocyclic Compounds” (Enanta Pharmaceuticals, Inc., priority 2023, published 2024).
